{"source": "ChEMBL document CHEMBL1159296", "about": "“A Revised Structure for Rhinacanthone” (1995)", "system": "Pyricularia oryzae", "assay": "Antifungal activity against Pyricularia oryzae assessed as inhibition of spore germination at 10 ppm", "type": "functional"}
{"smiles": "CC1(C)COC2=C(C1)C(=O)C(=O)c1ccccc12", "note": "[RHINACANTHONE]", "values": [{"measurement": "inhibition at 10 ppm", "result": 100, "unit": "%"}]}
